In patent US20240252454A1, “COMPOSITION COMPRISING AN INHIBITOR OF MITOCHONDRIAL TRANSCRIPTION” (LEAD DISCOVERY CENTER GMBH, priority 2021, published 2024):

Key:
Assay in all cases: SRB assay, IMT combined with inhibitor
Format in all cases: cell-based
A2780 = A2780 (ovary); concentration series of the labelled inhibitor + fixed concentration of IMT (3S)-1-[(2R)-2-[4-(2-chloro-4-fluoro-phenyl)-2-oxo-chromen-7-yl]oxypropanoyl]piperidine-3-carboxylic acid (Table 3: 40 nM, 120 h); negative=synergistic, positive=antagonistic
SKOV3 = SKOV3 (ovary); concentration series of the labelled inhibitor + fixed concentration of IMT (3S)-1-[(2R)-2-[4-(2-chloro-4-fluoro-phenyl)-2-oxo-chromen-7-yl]oxypropanoyl]piperidine-3-carboxylic acid (Table 3: 40 nM, 120 h); negative=synergistic, positive=antagonistic
Experimental: (§1) Solforhodamine B assay is carried out as described in Voigt W. (2005) Sulforhodamine B Assay and Chemosensitivity. (Methods in Molecular Medicine™, vol 110. Humana Press. https://doi.org/10.1385/1-59259-869-2:039).
(§2) The determination of changes in cellular biomass was based on the Solforhodamine B assay format, carried out as described in Voigt W. (2005) Sulforhodamine B Assay and Chemosensitivity. (Methods in Molecular Medicine™, vol 110. Humana Press. https://doi.org/10.1385/1-59259-869-2:039).
(§3) All in vitro cell culture experiments were carried out under near physiological glucose concentrations (5 mM) in at least two independent replicates.
(§4) First, 30 different cell lines from 14 different tissue types were tested in the SRB assay format. The cells were examined individually for changes in growth over a period of 120 hours with dilution series of both inhibitors. Untreated cells were used as a negative control group. Subsequently, a dilution series of the respective MAPK signalling pathway SOCs was treated in combination with a fixed concentration of 40 nM (3S)-1-[(2R)-2-[4-(2-chloro-4-fluoro-phenyl)-2-oxo-chromen-7-yl]oxypropanoyl]piperidine-3-carboxylic acid.

IMR90 = IMR90 (lung); concentration series of the labelled inhibitor + fixed concentration of IMT (3S)-1-[(2R)-2-[4-(2-chloro-4-fluoro-phenyl)-2-oxo-chromen-7-yl]oxypropanoyl]piperidine-3-carboxylic acid (Table 3: 40 nM, 120 h); negative=synergistic, positive=antagonistic
Experimental: as §1, §2, §3, §4

A549 = A549 (lung); concentration series of the labelled inhibitor + fixed concentration of IMT (3S)-1-[(2R)-2-[4-(2-chloro-4-fluoro-phenyl)-2-oxo-chromen-7-yl]oxypropanoyl]piperidine-3-carboxylic acid (Table 3: 40 nM, 120 h); negative=synergistic, positive=antagonistic
Experimental: as §1, §2, §3, §4

A673 = A673 (muscle); concentration series of the labelled inhibitor + fixed concentration of IMT (3S)-1-[(2R)-2-[4-(2-chloro-4-fluoro-phenyl)-2-oxo-chromen-7-yl]oxypropanoyl]piperidine-3-carboxylic acid (Table 3: 40 nM, 120 h); negative=synergistic, positive=antagonistic
Experimental: as §1, §2, §3, §4

SKMEL28 = SKMEL28 (skin); concentration series of the labelled inhibitor + fixed concentration of IMT (3S)-1-[(2R)-2-[4-(2-chloro-4-fluoro-phenyl)-2-oxo-chromen-7-yl]oxypropanoyl]piperidine-3-carboxylic acid (Table 3: 40 nM, 120 h); negative=synergistic, positive=antagonistic
Experimental: as §1, §2, §3, §4

U2OS = U2OS (bone); concentration series of the labelled inhibitor + fixed concentration of IMT (3S)-1-[(2R)-2-[4-(2-chloro-4-fluoro-phenyl)-2-oxo-chromen-7-yl]oxypropanoyl]piperidine-3-carboxylic acid (Table 3: 40 nM, 120 h); negative=synergistic, positive=antagonistic
Experimental: as §1, §2, §3, §4

PANC1 = PANC1 (pancreas); concentration series of the labelled inhibitor + fixed concentration of IMT (3S)-1-[(2R)-2-[4-(2-chloro-4-fluoro-phenyl)-2-oxo-chromen-7-yl]oxypropanoyl]piperidine-3-carboxylic acid (Table 3: 40 nM, 120 h); negative=synergistic, positive=antagonistic
Experimental: as §1, §2, §3, §4

HCT15 = HCT15 (colon); concentration series of the labelled inhibitor + fixed concentration of IMT (3S)-1-[(2R)-2-[4-(2-chloro-4-fluoro-phenyl)-2-oxo-chromen-7-yl]oxypropanoyl]piperidine-3-carboxylic acid (Table 3: 40 nM, 120 h); negative=synergistic, positive=antagonistic
Experimental: as §1, §2, §3, §4

MHHES1 = MHHES1 (bone); concentration series of the labelled inhibitor + fixed concentration of IMT (3S)-1-[(2R)-2-[4-(2-chloro-4-fluoro-phenyl)-2-oxo-chromen-7-yl]oxypropanoyl]piperidine-3-carboxylic acid (Table 3: 40 nM, 120 h); negative=synergistic, positive=antagonistic
Experimental: as §1, §2, §3, §4

HT1080 = HT1080 (connective tissue); concentration series of the labelled inhibitor + fixed concentration of IMT (3S)-1-[(2R)-2-[4-(2-chloro-4-fluoro-phenyl)-2-oxo-chromen-7-yl]oxypropanoyl]piperidine-3-carboxylic acid (Table 3: 40 nM, 120 h); negative=synergistic, positive=antagonistic
Experimental: as §1, §2, §3, §4

MV4-11 = MV4-11 (hematological); concentration series of the labelled inhibitor + fixed concentration of IMT (3S)-1-[(2R)-2-[4-(2-chloro-4-fluoro-phenyl)-2-oxo-chromen-7-yl]oxypropanoyl]piperidine-3-carboxylic acid (Table 3: 40 nM, 120 h); negative=synergistic, positive=antagonistic
Experimental: as §1, §2, §3, §4

JAR = JAR (placenta); concentration series of the labelled inhibitor + fixed concentration of IMT (3S)-1-[(2R)-2-[4-(2-chloro-4-fluoro-phenyl)-2-oxo-chromen-7-yl]oxypropanoyl]piperidine-3-carboxylic acid (Table 3: 40 nM, 120 h); negative=synergistic, positive=antagonistic
Experimental: as §1, §2, §3, §4

COLO205 = COLO205 (colon); concentration series of the labelled inhibitor + fixed concentration of IMT (3S)-1-[(2R)-2-[4-(2-chloro-4-fluoro-phenyl)-2-oxo-chromen-7-yl]oxypropanoyl]piperidine-3-carboxylic acid (Table 3: 40 nM, 120 h); negative=synergistic, positive=antagonistic
Experimental: as §1, §2, §3, §4

Row | SMILES | difference between the calculated combinatorial index (BLISS) and the observed combinatorial effect (A2780) | difference between the calculated combinatorial index (BLISS) and the observed combinatorial effect (SKOV3) | difference between the calculated combinatorial index (BLISS) and the observed combinatorial effect (IMR90) | difference between the calculated combinatorial index (BLISS) and the observed combinatorial effect (A549) | difference between the calculated combinatorial index (BLISS) and the observed combinatorial effect (A673) | difference between the calculated combinatorial index (BLISS) and the observed combinatorial effect (SKMEL28) | difference between the calculated combinatorial index (BLISS) and the observed combinatorial effect (U2OS) | difference between the calculated combinatorial index (BLISS) and the observed combinatorial effect (PANC1) | difference between the calculated combinatorial index (BLISS) and the observed combinatorial effect (HCT15) | difference between the calculated combinatorial index (BLISS) and the observed combinatorial effect (MHHES1) | difference between the calculated combinatorial index (BLISS) and the observed combinatorial effect (HT1080) | difference between the calculated combinatorial index (BLISS) and the observed combinatorial effect (MV4-11) | difference between the calculated combinatorial index (BLISS) and the observed combinatorial effect (JAR) | difference between the calculated combinatorial index (BLISS) and the observed combinatorial effect (COLO205)
1 | Cn1cnc2c(F)c(Nc3ccc(Br)cc3Cl)c(C(=O)NOCCO)cc21 [Selumetinib] | −0.0046 | 0.0622 | −0.0291 | −0.0519 | 0.0313 | 0.0096 | −0.1010 | 0.0867 | 0.0320 | 0.0218 | −0.0139 | 0.0150 | 0.0045 | 0.0142
2 | CC(=O)Nc1cccc(-n2c(=O)n(C3CC3)c(=O)c3c(Nc4ccc(I)cc4F)n(C)c(=O)c(C)c32)c1 [Trametinib] | 0.0305 | −0.0444 | 0.0533 | −0.0142 | 0.0225 | 0.0296 | −0.0358 | 0.0596 | 0.0677 | 0.0760 | 0.0288 | 0.0747 | 0.0230 | 0.0319
3 | CC(C)Nc1cc(-c2c[nH]c(C(=O)N[C@H](CO)c3cccc(Cl)c3)c2)c(Cl)cn1 [Ulixertinib] | −0.0025 | 0.0284 | 0.0678 | −0.0185 | 0.0876 | 0.0022 | −0.0165 | 0.0634 | −0.0215 | 0.0992 | −0.0011 | 0.0079 | 0.0116 | 0.0384
